Measurements reported in publication PMC11597207, “Synthesis and Anti-Inflammatory and Analgesic Potentials of Ethyl 2-(2,5-Dioxo-1-Phenylpyrrolidin-3-yl)-2-Methylpropanoate” (Pharmaceuticals, 2024).
Where “and” joins values, the source holds several entries; their conditions need not be identical. Equal entries are not always repeated.

Tests used:
Assay type in all cases: in vivo
mice [1] = assay: Acute toxicity in mice
Procedure: The synthesized compound was assessed for its acute toxicity using mice sourced from the National Institute of Health in Pakistan. The mice for the experiment were categorized into several groups. Some groups were designated to receive the test samples, and another was set as a control group. […]. These compounds were first dissolved in normal saline before being administered. […]. The mice were monitored for a period of 24 h to 4 weeks following the administration of the pivalate-based Michael product. The study closely observed the mice for any irregular behavior, such as ataxia, aggressive reactions, and potential allergic symptoms, among others. Furthermore, any harmful outcomes or lethality were also recorded. These observations and recorded adverse events were compared between the group treated with the test compound and the control group. These comparisons offer valuable insights into the toxicity levels of the newly synthesized compounds [47].

[2] = system: carrageenan-induced paw edema; assay: Carrageenan-induced paw edema model; conditions: mice
Procedure: The anti-inflammatory activity of MAK01 was evaluated through a carrageenan-induced paw edema model. The mice, with weights ranging from 25 to 30 g, were separated into five distinct groups, these being Vehicle Group 1, Aspirin Group 2, and different concentrations of MAK01 in Groups 3–5. Each of these groups comprised five mice. The negative control group in the experiment received a specific solution comprising normal saline, DMSO, and Tween-80. The mixture contained 94% normal saline, 5% DMSO, and 1% Tween-80, delivered at a concentration of 10 mL per kg. In contrast, the positive control group in the assay received the comparator aspirin at a precise dose of 10 mg/kg. The test samples were administered at doses of 10 mg/kg, 20 mg/kg, and 30 mg/kg, given intra-peritoneally. After 30 min, a 2% carrageenan suspension (0.2 mL) was administered to each mouse in every group via a subcutaneous injection in the hind paw. In the experiment, a plethysmometer was used to precisely measure inflammation and edema. These measurements were taken at multiple time points both prior to and following the carrageenan administration. Specifically, the readings were recorded at 1, 2, 3, 4, and 5 h intervals to monitor the progress of the inflammatory response and paw swelling. These obtained results were then compared against the outcomes from the negative control group. The gathered data from the experiment, relating to the impact of the newly synthesized compounds on paw edema, were carefully processed to derive the percentage of edema inhibition. Using the below equation, the percent inhibition was calculated. % Inhibition=Ce−Te/Ce×100
In the formula, ‘Ce’ refers to the control group paw edema volume, while ‘Te’ denotes test groups’ paw edema volume.

mice [3] = assay: Hot plate antinociceptive test

CCOC(=O)C(C)(C)C1CC(=O)N(c2ccccc2)C1=O (centres unmarked) [MAK01, ethyl 2-(2,5-dioxo-1-phenylpyrrolidin-3-yl)-2-methylpropanoate]
Lethal dose (mice [1]; both, mouse, in vivo, po): ~1000 mg per kg of body weight | Signs of toxicity (mice [1]; mice, oral, doses higher than 1000 mg per kg): distress, agitation, convulsions, discomfort, and abnormal behavior | Paw Edema Inhibition in Percent ([2]; dose 10 mg/kg, 1 h): 30.3 ± 0.77 ^ns % | Paw Edema Inhibition in Percent ([2]; dose 10 mg/kg, 2 h): 33.34 ± 0.98 % | Paw Edema Inhibition in Percent ([2]; dose 10 mg/kg, 3 h): 19.62 ± 0.64 % | Paw Edema Inhibition in Percent ([2]; dose 10 mg/kg, 4 h): 31.44 ± 0.74 % | Paw Edema Inhibition in Percent ([2]; dose 10 mg/kg, 5 h): 31.22 ± 0.84 % | Paw Edema Inhibition in Percent ([2]; dose 20 mg/kg, 1 h): 34.7 ± 0.74 ^ns % | Paw Edema Inhibition in Percent ([2]; dose 20 mg/kg, 2 h): 34.7 ± 0.74% and 34.54 ± 0.76 % | Paw Edema Inhibition in Percent ([2]; dose 20 mg/kg, 3 h): 21.42 ± 0.64 % | Paw Edema Inhibition in Percent ([2]; dose 20 mg/kg, 4 h): 29.52 ± 0.63 % | Paw Edema Inhibition in Percent ([2]; dose 20 mg/kg, 5 h): 31.85 ± 0.32 % | Paw Edema Inhibition in Percent ([2]; dose 30 mg/kg, 1 h): 38.74 ± 0.81 ^ns % | Paw Edema Inhibition in Percent ([2]; dose 30 mg/kg, 2 h): 39.20 ± 0.86 % | Paw Edema Inhibition in Percent ([2]; dose 30 mg/kg, 3 h): 34.4 ± 0.64 % | Paw Edema Inhibition in Percent ([2]; dose 30 mg/kg, 4 h): 37.64 ± 0.86 % | Paw Edema Inhibition in Percent ([2]; dose 30 mg/kg, 5 h): 40.58 ± 0.84% and 40.58% | Latency Time (Seconds) on Hot Plate (mice [3]; dose 50 mg/kg, 30 min): 10.32 ± 0.82 s | Latency Time (Seconds) on Hot Plate (mice [3]; dose 50 mg/kg, 60 min): 9.96 ± 0.16 s | Latency Time (Seconds) on Hot Plate (mice [3]; dose 50 mg/kg, 90 min): 9.63 ± 0.26 s | Latency Time (Seconds) on Hot Plate (mice [3]; dose 50 mg/kg, 120 min): 9.49 ± 0.25 s | Latency Time (Seconds) on Hot Plate (mice [3]; dose 50 mg/kg, 150 min): 9.16 ± 0.81 s | Latency Time (Seconds) on Hot Plate (mice [3]; dose 100 mg/kg, 30 min): 12.16 ± 0.51 Seconds and 12.16 ± 0.51 ^ns Seconds | Latency Time (Seconds) on Hot Plate (mice [3]; dose 100 mg/kg, 60 min): 11.92 ± 0.71 s | Latency Time (Seconds) on Hot Plate (mice [3]; dose 100 mg/kg, 90 min): 11.76 ± 0.87 ^ns Seconds | Latency Time (Seconds) on Hot Plate (mice [3]; dose 100 mg/kg, 120 min): 11.14 ± 0.91 ^ns Seconds | Latency Time (Seconds) on Hot Plate (mice [3]; dose 100 mg/kg, 150 min): 10.96 ± 0.74 s | Latency Time (Seconds) on Hot Plate (mice [3]; dose 150 mg/kg, 30 min): 12.93 ± 0.45 Seconds and 12.93 ± 0.45 ^ns Seconds | Latency Time (Seconds) on Hot Plate (mice [3]; dose 150 mg/kg, 60 min): 12.85 ± 0.84 ^ns Seconds | Latency Time (Seconds) on Hot Plate (mice [3]; dose 150 mg/kg, 90 min): 12.42 ± 0.36 ^ns Seconds | Latency Time (Seconds) on Hot Plate (mice [3]; dose 150 mg/kg, 120 min): 11.98 ± 0.74 ^ns Seconds | Latency Time (Seconds) on Hot Plate (mice [3]; dose 150 mg/kg, 150 min): 11.76 ± 0.41 ^ns Seconds
